For assay [1], the target named is T1, zPaqr5b (zebrafish Paqr5b) (Danio rerio, UniProt Q6DC77).
T1 construct: full-length CDS in pPICZalphaC; alpha-factor pre-pro signal N-terminal (major purified band 55 kDa keeps it, 45 kDa band Kex2-cut), C-terminal c-Myc and 6xHis kept; Pichia pastoris X-33; DDM-solubilized, purified by Ni-NTA and Sephacryl S-300
T1 sequence (Q6DC77 1-347): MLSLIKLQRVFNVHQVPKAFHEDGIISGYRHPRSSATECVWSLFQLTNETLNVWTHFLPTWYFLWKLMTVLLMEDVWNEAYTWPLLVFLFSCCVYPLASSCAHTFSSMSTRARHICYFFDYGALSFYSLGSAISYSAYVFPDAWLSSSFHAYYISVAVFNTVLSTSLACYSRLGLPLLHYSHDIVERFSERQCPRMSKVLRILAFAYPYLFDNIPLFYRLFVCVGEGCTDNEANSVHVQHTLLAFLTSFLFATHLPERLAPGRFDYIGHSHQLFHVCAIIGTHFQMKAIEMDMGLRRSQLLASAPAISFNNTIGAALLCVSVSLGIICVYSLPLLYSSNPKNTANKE
As to the kind of experiment: competition with [3H]-progesterone, filter binding. The source says: competition with [3H]-progesterone, filter binding on zPaqr5b (zebrafish Paqr5b)

Assay [2] addresses T1, zPaqr5b (zebrafish Paqr5b). As to the kind of experiment: radioligand saturation, filter binding, Scatchard.

Where two headings read alike, the source gives them in different places.

In assay [1], `CC(=O)[C@H]1CC[C@H]2[C@@H]3CC[C@H]4C[C@H](O)CC[C@]4(C)[C@H]3CC[C@]12C` [ALLO, allopregnanolone] displayed an IC50 of 25.2 nM.

On to `C[C@@H](O)[C@@]1(O)CC[C@H]2[C@@H]3CCC4=CC(=O)CC[C@]4(C)[C@H]3CC[C@@]21C` [DHP, 17α,20β-dihydroxy-4-pregnen-3-one], for which the IC50 in assay [1] (read-out: IC50) was found to be 19.2 nM.

In the case of `CC(=O)[C@H]1CC[C@H]2[C@@H]3CCC4=CC(=O)CC[C@]4(C)[C@H]3CC[C@]12C` [P4, progesterone], the IC50 in assay [1] (read-out: IC50) stood at 5.32 nM. The Kd in assay [2] is 4.6 nM.

As for `CC(=O)[C@H]1CC[C@H]2[C@@H]3CC=C4C[C@@H](O)CC[C@]4(C)[C@H]3CC[C@]12C` [Preg, pregnenolone], the IC50 in assay [1] (read-out: IC50) turned out to be 38.3 nM.

For the origin of these results see publication PMC11999305, “Biochemical characterization of zebrafish Paqr5b” (Biochemistry and Biophysics Reports, 2025).
